Experimental data reported in patent US8278301B2, “2-alkylbenzoxazole carboxamides as 5HT3 modulators” (Albany Molecular Research, Inc., priority 2006, dated 2012).
Counter-ions that a name gives are not always drawn. Like-named read-outs stand apart in the source and are kept apart here.

Assays:
human 5-HT3 receptor = biological target: T1, human 5-HT3 receptor (Homo sapiens, UniProt P46098); assay: Compound affinity for the human 5-HT3 receptor (Assay B), SPA radioligand binding with [9-methyl-3H]BRL-43694; set-up: purchased Perkin Elmer
T1 sequence (P46098 24-478): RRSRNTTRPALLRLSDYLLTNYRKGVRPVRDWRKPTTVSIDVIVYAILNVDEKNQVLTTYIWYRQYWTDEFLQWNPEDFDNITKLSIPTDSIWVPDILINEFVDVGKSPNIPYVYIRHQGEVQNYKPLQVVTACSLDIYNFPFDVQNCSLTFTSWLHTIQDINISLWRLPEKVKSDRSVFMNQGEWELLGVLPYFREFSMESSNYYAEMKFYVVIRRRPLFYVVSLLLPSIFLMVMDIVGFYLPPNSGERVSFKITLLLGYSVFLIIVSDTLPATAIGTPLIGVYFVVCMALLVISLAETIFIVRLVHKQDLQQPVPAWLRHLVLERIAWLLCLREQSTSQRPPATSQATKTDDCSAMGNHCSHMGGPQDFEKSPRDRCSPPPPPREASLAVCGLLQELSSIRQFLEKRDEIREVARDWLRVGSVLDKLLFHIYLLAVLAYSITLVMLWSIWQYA
Protocol: Compound Affinity for the Human 5-HT3 Receptor (Assay B)
The relative affinity of the various compounds for the human 5-HT3 receptor was measured in a radioligand binding assay, using a scintillation proximity assay (SPA) format. Test compounds were dissolved to 10 mM in 100% DMSO, then serially diluted at 10× assay concentrations in 100% DMSO in 96-well polypropylene plates and further diluted to 4× assay concentrations with the assay buffer. Samples were incubated in 50 mM Tris-HCl, pH 7.5, 3 mM MgCl2, 1 mM EDTA and 10% DMSO with 10 nM [9-methyl-3H]BRL-43694 (Perkin Elmer), 3 μg of human 5-HT3 receptor membranes (Perkin Elmer) and 0.5 mg/mL SPA beads (WGA PVT, Amersham Biosciences) in a final volume of 0.2 mL. Binding reactions were set up in wells of PicoPlates-96 (Perkin Elmer) by adding consecutively 50 μL of each competing compound or buffer, SPA beads, the radioligand and 5-HT3 receptor membranes. After 60-min incubation at room temperature on a Nutator mixer, plates were centrifuged for 15 min at 1,500 rpm, followed by incubation in the dark for 30 min. Radioactivity was counted in the TopCount microplate counter (Perkin Elmer) for 5 min. Total binding control contained buffer only; nonspecific binding was determined in the presence of 30 μM MDL-72222. Specific binding was determined by subtracting nonspecific binding from total binding. All experiments were performed in duplicate using ten concentrations of a competing ligand, with ondansetron included as a control in every run. IC50 values were determined from specific binding data using XLfit4.1 curve fitting software from IDBS Ltd. Ki values were then calculated from the Cheng-Prusoff equation.
(§1) In the table below, the assay in which the data were obtained is shown (as A, B. C, or D) along with the data.

mouse 5-HT3 receptor = biological target: T2, mouse 5-HT3 receptor (Mus musculus, UniProt P23979); assay: Compound affinity for the mouse 5-HT3 receptor (Assay C), [3H]-GR65630 radioligand binding, Novoscreen; details: read-out: Mouse % Inhibition @ 100 nM
T2 construct: host or cells: mouse neuroblastoma cells (N1E-155 as printed)
T2 sequence (P23979 24-489): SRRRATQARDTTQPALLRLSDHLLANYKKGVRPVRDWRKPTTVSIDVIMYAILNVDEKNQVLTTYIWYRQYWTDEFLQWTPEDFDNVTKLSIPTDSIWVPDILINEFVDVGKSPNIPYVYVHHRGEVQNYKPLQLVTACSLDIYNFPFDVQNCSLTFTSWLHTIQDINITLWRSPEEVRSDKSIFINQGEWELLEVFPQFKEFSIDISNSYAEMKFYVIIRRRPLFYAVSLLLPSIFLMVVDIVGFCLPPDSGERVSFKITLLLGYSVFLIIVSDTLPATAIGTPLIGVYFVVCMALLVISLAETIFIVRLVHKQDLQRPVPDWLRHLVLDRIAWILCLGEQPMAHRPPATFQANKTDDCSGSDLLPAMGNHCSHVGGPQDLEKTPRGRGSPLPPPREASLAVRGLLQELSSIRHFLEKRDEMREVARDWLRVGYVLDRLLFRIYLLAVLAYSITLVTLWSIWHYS
Protocol: Compound Affinity for the Mouse 5-HT3Receptor (Assay C)
Compounds were tested by Novoscreen Biosciences Corporation, 7170 Standard Drive, Hanover, Md. in a radioligand binding assay using the mouse 5-HT3 receptor derived from mouse neuroblastoma cells and [^3H]-GR65630 (ligand). The non-specific binding determinant was MDL 72222. Compounds were tested at a single concentration of 100 nM in duplicate. Percent inhibition is reported. In order to evaluate the relative affinity of the various compounds for the 5-HT3 receptor, N1E-155 cell lines were developed to express the target protein. For binding, these cells were homogenized, centrifuged and washed with buffer (20 mM HEPES, 150 mM NaCl, pH 7.4) then suspended in 0.5 mL of buffer and [^3H]-GR65630 added at a concentration of 3.5×10^−10 M. An initial single concentration of 10^−7 M of the test compound was then added. Incubation was carried out at room temperature for 60 minutes at 25° C. then was terminated by rapid removal of the incubation medium. Radioactivity was assessed using liquid scintillation spectrophotometry after exposure to scintillation cocktail for at least three hours. […] Ki values were then calculated from the Cheng-Prusoff equation. In all of the above binding studies the non-specific determinant was MDL-72222 (1.0 μM).
as §1

[1] = Assay B, SPA, [9-methyl-3H]BRL-43694, Cheng-Prusoff, read-out: Human 5HT3 Ki
[2] = Assay C, single concentration 100 nM, in duplicate, [3H]-GR65630

`O=C(NC1CC2CCCC(C1)N2)c1cccc2oc(C3CC3)nc12` (stereo not drawn) [Example 36, N-(9-Azabicyclo[3.3.1]non-3-yl)-2-cyclopropylbenzoxazole-4-carboxamide Hydrochloride] gave a Ki (human 5-HT3 receptor) of 6.3 nM.
`CN1C2COCC1CC(NC(=O)c1cccc3oc(C4CCCC4)nc13)C2` (stereo not drawn) [Example 32, N-(9-methyl-3-oxa-9-azabicyclo[3.3.1]non-7-yl)-2-(cyclopentyl-4-yl)benzoxazole-4-carboxamide Hydrochloride] gave a Ki (human 5-HT3 receptor) of 81.9 nM.
With `CN1[C@@H]2CCC[C@H]1C[C@@H](NC(=O)c1cccc3oc(C4CCNCC4)nc13)C2` [Example 27, Endo-N-(9-methyl-9-azabicyclo[3.3.1]non-3-yl)-2-(piperidin-4-yl)benzoxazole-4-carboxamide Dihydrochloride] the Ki (human 5-HT3 receptor) was 41 nM.
For `CC(=O)N1CCC(c2nc3c(C(=O)N[C@@H]4CN5CCC4CC5)cccc3o2)CC1` [Example 31, (S)—N-(1-Azabicyclo[2.2.2]oct-3-yl)-2-(1-acetylpiperidin-4-yl)benzoxazole-4-carboxamide Hydrochloride], the Ki (human 5-HT3 receptor; [1]) was 356 nM.
For `CN1CCC(c2nc3c(C(=O)N[C@H]4C[C@H]5CCC[C@@H](C4)N5C)cccc3o2)CC1` [Example 29, Endo-N-(9-methyl-9-azabicyclo[3.3.1]non-3-yl)-2-(1-methylpiperidin-4-yl)benzoxazole-4-carboxamide Dihydrochloride], the Ki (human 5-HT3 receptor) was 28 nM.
With `O=C(N[C@@H]1CN2CCC1CC2)c1cccc2oc(C3CCCC3)nc12` [Example 6, (S)—N-(1-Azabicyclo[2.2.2]oct-3-yl)-2-cyclopentylbenzoxazole-4-carboxamide Hydrochloride] the inhibition at 0.1 µM (mouse 5-HT3 receptor; [2]) was 90.2%.
`C[C@H]1OC(=O)N(C)C1c1nc2c(C(=O)NC3CC4CCCC(C3)N4C)cccc2o1` (stereo partly drawn) [Example 42, Endo-N-(9-methyl-9-azabicyclo[3.3.1]nonan-3-yl)-2-((4S,5R/4R,5S)-3,5-dimethyl-2-oxo-oxazolidin-4-yl)benzoxazole-4-carboxamide] gave a Ki (human 5-HT3 receptor) of 24.9 nM.
`CN1CCC(c2nc3c(C(=O)N[C@@H]4CN5CCC4CC5)cccc3o2)CC1` [Example 30, (S)—N-(1-Azabicyclo[2.2.2]oct-3-yl)-2-(1-methylpiperidin-4-yl)benzoxazole-4-carboxamide Dihydrochloride Dihydrochloride] showed a Ki (human 5-HT3 receptor) of 83 nM.
With `O=C(N[C@@H]1CN2CCC1CC2)c1cccc2oc(C3CCOCC3)nc12` [Example 25, (S)—N-(1-Azabicyclo[2.2.2]oct-3-yl)-2-(tetrahydro-2H-pyran-4-yl)benzoxazole-4-carboxamide Hydrochloride] the Ki (human 5-HT3 receptor; [1]) was 126 nM.
For `O=C(N[C@@H]1CN2CCC1CC2)c1cccc2oc(CN3CCOCC3)nc12` [Example 38, (S)—N-(Azabicyclo[2.2.2]oct-3-yl)-2-(morpholinomethyl)benzoxazole-4-carboxamide Hydrochloride], the inhibition at 10 µM (human 5-HT3 receptor; Assay B, 10 μM) was 74%.
`CN1CCCCC1c1nc2c(C(=O)N[C@H]3C[C@H]4CCC[C@@H](C3)N4C)cccc2o1` (mixture of isomers) [Example 33, Endo-N-(9-Methyl-9-azabicyclo[3.3.1]nonan-3-yl)-2-(1-methylpiperidin-2-yl)benzoxazole-4-carboxamide Hydrochloride] showed a Ki (human 5-HT3 receptor) of 21.6 nM.
`CN1[C@@H]2CCC[C@H]1C[C@@H](NC(=O)c1cccc3oc(CN4CCOCC4)nc13)C2` [Example 39, Endo-N-(9-Methyl-9-azabicyclo[3.3.1]nonan-3-yl)-2-(morpholinomethyl)benzoxazole-4-carboxamide Hydrochloride] was tested, and the Ki (human 5-HT3 receptor) was 77.1 nM.
`CC1CC1c1nc2c(C(=O)NC3CN4CCC3CC4)cccc2o1` (racemic) [Example 14, (S)—N-(1-Azabicyclo[2.2.2]oct-3-yl)-2-(2-methylcyclopropyl)benzoxazole-4-carboxamide Hydrochloride] showed an inhibition at 0.1 µM (mouse 5-HT3 receptor) of 93.6%.
`O=C(N[C@@H]1CN2CCC1CC2)c1cccc2oc(C3CCNCC3)nc12` [Example 28, (S)—N-(1-Azabicyclo[2.2.2]oct-3-yl)-2-(piperidin-4-yl)benzoxazole-4-carboxamide Dihydrochloride] showed a Ki (human 5-HT3 receptor; [1]) of 111 nM.
With `CCN1C2CCCC1CC(NC(=O)c1cccc3oc(C4CC4)nc13)C2` (stereo not drawn) [Example 21, N-(9-Ethyl-9-azabicyclo[3.3.1]non-3-yl)-2-cyclopropylbenzoxazole-4-carboxamide Hydrochloride] the inhibition at 0.1 µM (mouse 5-HT3 receptor; [2]) was 34.9%.
`CCN(CC)Cc1nc2c(C(=O)N[C@H]3C[C@H]4CCC[C@@H](C3)N4C)cccc2o1` [Example 41, Endo-N-(9-Methyl-9-azabicyclo[3.3.1]nonan-3-yl)-2-(diethylaminomethyl)benzoxazole-4-carboxamide Hydrochloride] showed a Ki (human 5-HT3 receptor) of 15.3 nM.
For `CN1[C@@H]2CCC[C@H]1C[C@@H](NC(=O)c1cccc3nc(C(C)(C)C)oc13)C2` [Example 37, Endo-N-(9-methyl-9-azabicyclo[3.3.1]non-3-yl)-2-tert-butyl benzoxazole-7-carboxamide Hydrochloride], the Ki (human 5-HT3 receptor; [1]) was 166 nM.
In the case of `CCN(CC)Cc1nc2c(C(=O)NC3CN4CCC3CC4)cccc2o1` [Example 40, (S)—N-(Azabicylco[2.2.2]oct-3-yl)-2-(diethylaminomethyl)benzoxazole-4-carboxamide Hydrochloride], the Ki (human 5-HT3 receptor; [1]) is reported as 129 nM.
With `O=C(N[C@@H]1CN2CCC1CC2)c1cccc2oc(C3CCCCC3)nc12` [Example 16, (S)—N-(1-Azabicyclo[2.2.2]oct-3-yl)-2-cyclohexylbenzoxazole-4-carboxamide Hydrochloride] the inhibition at 0.1 µM (mouse 5-HT3 receptor; [2]) was 94.1%.
`CN1[C@@H]2CCC[C@H]1C[C@@H](NC(=O)c1cccc3oc(C45CCN(CC4)CC5)nc13)C2` [Example 26, Endo-N-(9-Methyl-9-azabicyclo[3.3.1]nonan-3-yl)-2-(quinuclidin-4-yl)benzoxazole-4-carboxamide Dihydrochloride] gave a Ki (human 5-HT3 receptor; [1]) of 173 nM.
Work on `CN1C2CCCC1CC(NC(=O)c1cccc3oc(C4CCCCC4)nc13)C2` (stereo not drawn) [Example 15, Endo-N-(9-Methyl-9-azabicyclo[3.3.1]non-3-yl)-2-cyclohexylbenzoxazole-4-carboxamide Hydrochloride] yielded an inhibition at 0.1 µM (mouse 5-HT3 receptor; [2]) of 105%.
